These results are taken from patent US11242334B2, “Heterocyclic compounds as kinase inhibitors, compositions comprising the heterocyclic compound, and methods of use thereof” (JS INNOPHARM (SHANGHAI) LTD, priority 2017, dated 2022).

The target in one test is T1, human ERK2 (Homo sapiens, UniProt P28482).
T1 construct: recombinantly expressed as GST-tagged full-length protein purified from E. coli; GST; purchased Invitrogen PV3311; host or cells: E. coli
Put plainly: LanthaScreen TR-FRET enzymatic assay, ERK2. The following applies: IC50 values of ERK2 biochemical activity; 5 μM ATP, 400 nM ATF2-GFP substrate. How it is done:
Compounds were tested in a LanthaScreen™ time-resolved fluorescence energy transfer (TR-FRET) enzymatic assay from Invitrogen. The assay used human ERK2 (Mitogen Activated Kinase 1, Invitrogen, Cat. PV3311) recombinantly expressed as GST-tagged full-length protein purified from E. coli and activated in vitro with MAP2K1. The substrate was a recombinant truncated version (residues 19-96) of ATF2 fused with Green Fluorescent Protein (Invitrogen, Cat. PV4445). Test compounds were prepared and diluted in DMSO in 3-fold serial dilutions to 100× of the final testing concentrations. The compounds were then further diluted to 4× by the kinase reaction buffer (Invitrogen, Cat. PV3189). The enzymatic reaction for compound testing was performed in a white 384-well polypropylene plate (Packard, Cat. 6005214) with a total reaction volume of 10 μl containing 20 ng/ml ERK2, 400 nM substrate, and 5 μM ATP that is around its Km. The assay started with loading 2.5 μl of ERK2 diluted in kinase reaction buffer to wells, followed by addition of equal volume of 4× compounds for 15-min incubation at the room temperature for pre-treatment. The enzymatic reaction was initiated by addition of 5 μl of mixture of the substrate and ATP prepared in kinase reaction buffer. After one hour reaction, 10 μl mixture of EDTA (final 10 mM) and terbium-labeled anti-pATF2 (pThr71) antibody (final 2 nM) (Invitrogen, Cat. PV4451) prepared in TR-FRET antibody dilution buffer (Invitrogen, Cat. PV3574) was added to stop the enzymatic reaction and produce TR-FRET signals. After 30 minutes of incubation at room temperature, the plate was read in Tecan Infinite F200 Pro with the following settings: Excitation 340 nm (30)/Emission1 495 nm (10)/Emission2 520 nm (25). The TR-FRET values were dimensionless numbers that were calculated as the ratio of the acceptor ([…]) signal to the donor (Terbium) signal. Percent of control was calculated as the percentage of compound-treated vs 1% DMSO vehicle-treated. The dose-response curves were generated and the ICsos were calculated by nonlinear sigmoid curve fitting using GraphPad Prism.
The IC50 values of ERK2 biochemical activity for the examples disclosed herein are listed in Table 3, A: ≤10 nM; B: >10 nM and ≤50 nM; C: >50 nM and ≤100 nM; D.>100 nM.
In general terms: TR-FRET usually uses a lanthanide donor and a delayed reading to cut background.

For another test, the system named is Colo205 cell line. Put plainly: Colo205 cell proliferation assay (MTT assay, WST-8 readout). The following applies: Homo sapiens; IC50 values of growth inhibition in Colo 205 cells; 72 hours. It is filed as cell-based. How it is done:
Compounds disclosed herein were tested for the inhibition of ERK2 by a Colo205 cell proliferation assay commonly known as MTT assay. In this assay, a complete media was prepared by adding 10% fetal bovine serum to RPMI-1640 medium (Life technology). Colon cancer cells (Colo205 cell line) were added to each of 88 wells of a 96 well plate at a seeding density of 5,000 cells/well/90 μL. The cells were allowed to attach to the plate by incubating at 37° C. for 24 hours. The compound was dissolved in DMSO (SIGMA). A solution of test compound was prepared in complete media by serial dilution to obtain the following concentrations: 500 μM, 150 μM, 50 μM, 15 μM, 5 μM, 1.5 μM, 0.5 μM, 0.15 μM and 0.05 μM. The test compound solution (10 μL) was added to each of 80 cell-containing wells. The final concentrations of the compound were following: 50 μM, 15 μM, 5 μM, 1.5 μM, 0.5 μM, 0.15 μM, 0.05 μM, 0.015 μM and 0.005 μM. The final concentration of DMSO is 0.5%. To the 8 remaining cell-containing wells, only complete media (containing 0.5% DMSO) was added to form a control group in order to measure maximal proliferation. To the remaining 8 empty wells, complete media was added to for a vehicle control group in order to measure background. The plates were incubated at 37° C. for 72 hours. 10 μL WST-8 solution (DOJINDO, Cell Counting KIT-8) was added to each well. The plates were further incubated at 37° C. for 2 hours, and then read for the absorbance using a microplate reader at 450 nm.
The IC50 values of growth inhibition in Colo 205 cells for Compounds disclosed are listed in Table 3, A′: ≤0.5 μM; B′: >0.5 μM and ≤1 μM; C′: >1.0 μM and ≤5 uM; D′: >5 μM.

T1 sequence (P28482 whole entry): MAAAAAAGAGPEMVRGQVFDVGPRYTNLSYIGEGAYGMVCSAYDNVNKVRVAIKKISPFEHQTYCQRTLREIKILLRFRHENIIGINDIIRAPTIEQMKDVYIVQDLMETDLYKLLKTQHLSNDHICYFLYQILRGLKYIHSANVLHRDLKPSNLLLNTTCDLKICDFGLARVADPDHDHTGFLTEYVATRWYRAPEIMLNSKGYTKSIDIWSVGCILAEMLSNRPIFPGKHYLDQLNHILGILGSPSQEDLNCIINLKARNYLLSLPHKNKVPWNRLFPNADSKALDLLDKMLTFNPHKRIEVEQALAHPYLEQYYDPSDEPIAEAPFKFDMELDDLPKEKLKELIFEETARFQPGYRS

In the case of `C[C@@H](c1cc(F)cc(Br)c1)n1ccc(-c2ccc3[nH]nc(-c4cnn(C)c4)c3c2)cc1=O` (single isomer, unassigned) [Example 96A], the results for the IC50 at human ERK2 and with Colo205 cell line were less than 10 nM and 1000 to 5000 nM, respectively.

On to `C[C@H](c1cc(F)cc(Br)c1)n1ccc(-c2ccc3[nH]nc(-c4cnn(C)c4)c3c2)cc1=O` (single isomer, unassigned) [Example 96B], for which the IC50 (as a rule, the concentration that inhibits the measured activity by half) was less than 10 nM on human ERK2 and not above 500 nM in the test with Colo205 cell line.

As for `Cc1cc(-c2n[nH]c3ccc(-c4ccn([C@H](CO)c5cccc(Cl)c5)c(=O)c4)cc23)ccn1` [Example 1, (S)-1-(1-(3-chlorophenyl)-2-hydroxyethyl)-4-(3-(2-methyl-pyridin-4-yl)-1H-indazol-5-yl)pyridin-2(1H)-one], the half-maximal inhibitory concentration (IC50) was less than 10 nM at human ERK2 and not above 500 nM in the test with Colo205 cell line.

On to `O=c1cc(-c2ccc3[nH]nc(C4CCOCC4)c3c2)ccn1[C@H](CO)c1cccc(Cl)c1` [Example 2, (S)-1-(1-(3-chlorophenyl)-2-hydroxyethyl)-4-(3-(tetrahydro-2H-pyran-4-yl)-1H-indazol-5-yl)pyridin-2(1H)-one], for which the half-maximal inhibitory concentration (IC50) was less than 10 nM against human ERK2 and 500 to 1000 nM in the test with Colo205 cell line.

As for `Cc1n[nH]c2ccc(-c3ccn([C@H](CO)c4cccc(Cl)c4)c(=O)c3)cc12` [Example 3, (S)-1-(1-(3-chlorophenyl)-2-hydroxyethyl)-4-(3-methyl-1H-indazol-5-yl)pyridin-2(1H)-one], the IC50 on human ERK2 fell in the range of 10 to 50 nM; in the test on Colo205 cell line, 1000 to 5000 nM.

For the molecule `Cc1cc(-c2n[nH]c3ncc(-c4ccn([C@H](CO)c5cccc(Cl)c5)c(=O)c4)cc23)ccn1` [Example 4, (S)-1-(1-(3-chlorophenyl)-2-hydroxyethyl)-4-(3-(2-methylpyridin-4-yl)-1H-pyrazolo[3,4-b]pyridin-5-yl)pyridin-2(1H)-one], the concentration for half-maximal inhibition (IC50) on human ERK2 is less than 10 nM; in the test with Colo205 cell line, 500 to 1000 nM.

As to `CNc1n[nH]c2ccc(-c3ccn([C@H](CO)c4cccc(Cl)c4)c(=O)c3)cc12` [Example 5, (S)-1-(1-(3-chlorophenyl)-2-hydroxyethyl)-4-(3-(methyl-amino)-1H-indazol-5-yl)pyridin-2(1H)-one], the IC50 on human ERK2 was in the range of 10 to 50 nM; in the test on Colo205 cell line, 1000 to 5000 nM.

With `Cc1cc(-c2n[nH]c3ccc(-c4ccn([C@H](CO)c5cccc(Br)c5)c(=O)c4)cc23)ccn1` [Example 6, (S)-1-(1-(3-bromophenyl)-2-hydroxyethyl)-4-(3-(2-methyl-pyridin-4-yl)-1H-indazol-5-yl)pyridin-2(1H)-one], the IC50 at human ERK2 was less than 10 nM; with Colo205 cell line, not above 500 nM.

In the case of `Cn1nccc1-c1n[nH]c2ccc(-c3ccn([C@H](CO)c4cccc(Cl)c4)c(=O)c3)cc12` [Example 7, (S)-1-(1-(3-chlorophenyl)-2-hydroxyethyl)-4-(3-(1-methyl-1H-pyrazol-5-yl)-1H-indazol-5-yl)pyridin-2(1H)-one], the half-inhibitory concentration (IC50) against human ERK2 lay within 10 to 50 nM; in the test on Colo205 cell line, 1000 to 5000 nM.

For the molecule `Cc1cc(-c2n[nH]c3ccc(-c4ccn(Cc5cc(F)cc(Br)c5)c(=O)c4)cc23)ccn1` [Example 8, 1-(3-bromo-5-fluorobenzyl)-4-(3-(2-methylpyridin-4-yl)-1H-indazol-5-yl)pyridin-2(1H)-one], the IC50 was less than 10 nM against human ERK2 and 500 to 1000 nM in the test on Colo205 cell line.

Turning to `Cc1cc(-c2n[nH]c3ccc(-c4ccn([C@H](CO)c5cccc(Cl)c5)c(=O)c4)nc23)ccn1` [Example 9, (S)-1-(1-(3-chlorophenyl)-2-hydroxyethyl)-4-(3-(2-methyl-pyridin-4-yl)-1H-pyrazolo[4,3-b]pyridin-5-yl)pyridin-2(1H)-one], the 50% inhibitory concentration (IC50) is less than 10 nM at human ERK2 and 500 to 1000 nM in the test with Colo205 cell line.

For `CC(C)Oc1cc(-c2n[nH]c3ccc(-c4ccn(Cc5cc(F)cc(Br)c5)c(=O)c4)cc23)ccn1` [Example 10, 1-(3-bromo-5-fluorobenzyl)-4-(3-(2-isopropoxypyridin-4-yl)-1H-indazol-5-yl)pyridin-2(1H)-one], the half-maximal inhibitory concentration (IC50) at human ERK2 was 10 to 50 nM; in the test with Colo205 cell line, more than 5000 nM.

As for `Nc1n[nH]c2ccc(-c3ccn([C@H](CO)c4cccc(Cl)c4)c(=O)c3)cc12` [Example 11, (S)-4-(3-amino-1H-indazol-5-yl)-1-(1-(3-chlorophenyl)-2-hydroxyethyl)pyridin-2(1H)-one], the IC50 on human ERK2 was 10 to 50 nM; in the test on Colo205 cell line, more than 5000 nM.

Take `Cn1nccc1Nc1n[nH]c2ccc(-c3ccn([C@H](CO)c4cccc(Cl)c4)c(=O)c3)cc12` [Example 12, (S)-1-(1-(3-chlorophenyl)-2-hydroxyethyl)-4-(3-((1-methyl-1H-pyrazol-5-yl)amino)-1H-indazol-5-yl)pyridin-2(1H)-one]: the half-inhibitory concentration (IC50) against human ERK2 was 10 to 50 nM; with Colo205 cell line, 1000 to 5000 nM.

For the molecule `Cc1cc(-c2n[nH]c3ccc(-c4ccn([C@H](CO)c5cccc(Cl)c5)c(=O)c4)c(F)c23)ccn1` [Example 13, (S)-1-(1-(3-chlorophenyl)-2-hydroxyethyl)-4-(4-fluoro-3-(2-methylpyridin-4-yl)-1H-indazol-5-yl)pyridin-2(1H)-one], the IC50 against human ERK2 is less than 10 nM; with Colo205 cell line it was 500 to 1000 nM.

As for `Cc1cc(-c2n[nH]c3cc(F)c(-c4ccn([C@H](CO)c5cccc(Cl)c5)c(=O)c4)cc23)ccn1` [Example 14, (S)-1-(1-(3-chlorophenyl)-2-hydroxyethyl)-4-(6-fluoro-3-(2-methylpyridin-4-yl)-1H-indazol-5-yl)pyridin-2(1H)-one], the IC50 at human ERK2 lay within 10 to 50 nM; in the test with Colo205 cell line it was 1000 to 5000 nM.

Take `Cc1cc(-c2n[nH]c3ccc(-c4ccn([C@H](CO)c5ccc(Cl)c(F)c5)c(=O)c4)cc23)ccn1` [Example 15, (S)-1-(1-(4-chloro-3-fluorophenyl)-2-hydroxyethyl)-4-(3-(2-methylpyridin-4-yl)-1H-indazol-5-yl)pyridin-2(1H)-one]: the IC50 on human ERK2 was less than 10 nM; in the test with Colo205 cell line, not above 500 nM.

In the case of `Cc1nn(C)cc1-c1n[nH]c2ccc(-c3ccn([C@H](CO)c4cccc(Cl)c4)c(=O)c3)cc12` [Example 16, (S)-1-(1-(3-chlorophenyl)-2-hydroxyethyl)-4-(3-(1,3-dimethyl-1H-pyrazol-4-yl)-1H-indazol-5-yl)pyridin-2(1H)-one], the IC50 is less than 10 nM at human ERK2 and 500 to 1000 nM in the test with Colo205 cell line.

`CC(C)Oc1ccc(-c2n[nH]c3ccc(-c4ccn([C@H](CO)c5cccc(Cl)c5)c(=O)c4)cc23)cn1` [Example 17, (S)-1-(1-(3-chlorophenyl)-2-hydroxyethyl)-4-(3-(6-isopropoxypyridin-3-yl)-1H-indazol-5-yl)pyridin-2(1H)-one]: the IC50 at human ERK2 is less than 10 nM; in the test on Colo205 cell line, 500 to 1000 nM.

Turning to `Cn1cc(-c2n[nH]c3ccc(-c4ccn([C@H](CO)c5cccc(Cl)c5)c(=O)c4)cc23)cn1` [Example 18, (S)-1-(1-(3-chlorophenyl)-2-hydroxyethyl)-4-(3-(1-methyl-1H-pyrazol-4-yl)-1H-indazol-5-yl)pyridin-2(1H)-one], the figures for the 50% inhibitory concentration (IC50) at human ERK2 and in the test with Colo205 cell line were less than 10 nM and not above 500 nM, respectively.

With `CC(C)Oc1cc(-c2n[nH]c3ccc(-c4ccn([C@H](CO)c5cccc(Cl)c5)c(=O)c4)cc23)ccn1` [Example 19, (S)-1-(1-(3-chlorophenyl)-2-hydroxyethyl)-4-(3-(2-isopropoxypyridin-4-yl)-1H-indazol-5-yl)pyridin-2(1H)-one], the half-inhibitory concentration (IC50) against human ERK2 was less than 10 nM; with Colo205 cell line it was 1000 to 5000 nM.
